The inhibition is the change of the read-out against control, counted positive when it falls.

The values below come from ChEMBL document CHEMBL1132264, “Low-molecular-weight anti-HIV-1 peptides from the amino-terminal sequence of RANTES: possible lead compounds for coreceptor-directed anti-HIV-1 agents” (1999).

Assay [1] concerns Human immunodeficiency virus 1. The assay can be described thus: Anti-HIV-1 activity of phytohemagglutininin activated peripheral blood mononuclear cells infected with the macrophage-tropic HIV-1 virus (JRCSF) at 10 nM. In kind it is functional.
For assay [2], the system named is Human immunodeficiency virus 1. In words: Anti-HIV-1 activity of phytohemagglutininin activated peripheral blood mononuclear cells infected with the macrophage-tropic HIV-1 virus (JRCSF) at 100 nM. It is filed as functional.

Where a SMILES comes first, the peptide text is derived from it.

For `C[C@H](NC(=O)[C@@H]1CCCN1C(=O)[C@@H](NC(=O)[C@@H](NC(=O)[C@H](CC(=O)O)NC(=O)[C@H](CO)NC(=O)[C@H](CO)NC(=O)[C@H](Cc1ccc(O)cc1)NC(=O)[C@@H]1CCCN1)[C@@H](C)O)[C@@H](C)O)C(=O)O` [PYSSDTTPA] (H-PYSSDTTPA-OH), the inhibition at 0.01 µM in assay [1] was determined as 24%. Further, the inhibition at 0.1 µM in assay [2] came to 39%.
`CC(=O)N[C@@H](CO)C(=O)N1CCC[C@H]1C(=O)N[C@@H](Cc1ccc(O)cc1)C(=O)N[C@@H](CO)C(=O)N[C@@H](CO)C(=O)N[C@@H](CC(=O)O)C(=O)N[C@H](C(=O)N[C@H](C(=O)N1CCC[C@H]1C(=O)N[C@@H](C)C(N)=O)[C@@H](C)O)[C@@H](C)O` (Ac-SPYSSDTTPA-NH2) came in with an inhibition at 0.01 µM in assay [1] of 51%. In addition, the inhibition at 0.1 µM in assay [2] was 69%.
Compound `CC(=O)N[C@@H](CC(=O)O)C(=O)N[C@H](C(=O)N[C@H](C(=O)N1CCC[C@H]1C(=O)N[C@@H](C)C(N)=O)[C@@H](C)O)[C@@H](C)O` (Ac-DTTPA-NH2) showed an inhibition at 0.01 µM in assay [1] of 43%. The compound further came in with an inhibition at 0.1 µM in assay [2] of 46%.
Consider `C[C@H](NC(=O)[C@@H]1CCCN1C(=O)[C@@H](NC(=O)[C@@H](NC(=O)[C@@H](N)CC(=O)O)[C@@H](C)O)[C@@H](C)O)C(=O)O` (H-DTTPA-OH), for which, in assay [1], at 0.01 µM the inhibition was 18%. Besides, in assay [2], the inhibition at 0.1 µM was determined as 29%.
As for `C[C@H](NC(=O)[C@@H]1CCCN1C(=O)[C@@H](NC(=O)[C@@H](N)[C@@H](C)O)[C@@H](C)O)C(=O)O` (H-TTPA-OH), the inhibition at 0.01 µM in assay [1] is 0%. The compound also returned an inhibition at 0.1 µM in assay [2] of 0%.
Take `C[C@H](NC(=O)[C@@H]1CCCN1C(=O)[C@@H](NC(=O)[C@@H](NC(=O)[C@H](CC(=O)O)NC(=O)[C@@H](N)CO)[C@@H](C)O)[C@@H](C)O)C(=O)O` (H-SDTTPA-OH): the inhibition at 0.01 µM in assay [1] came out at 9%. For the same compound, testing at 0.1 µM in assay [2] gave an inhibition of 4%.
The compound `C[C@H](NC(=O)[C@@H]1CCCN1C(=O)[C@@H](NC(=O)[C@@H](NC(=O)[C@H](CC(=O)O)NC(=O)[C@H](CO)NC(=O)[C@@H](N)CO)[C@@H](C)O)[C@@H](C)O)C(=O)O` (H-SSDTTPA-OH) displayed an inhibition at 0.01 µM in assay [1] of 22%. Besides, the inhibition at 0.1 µM in assay [2] stood at 22%.
Turning to `C[C@H](NC(=O)[C@@H]1CCCN1C(=O)[C@@H](NC(=O)[C@@H](NC(=O)[C@H](CC(=O)O)NC(=O)[C@H](CO)NC(=O)[C@H](CO)NC(=O)[C@@H](N)Cc1ccc(O)cc1)[C@@H](C)O)[C@@H](C)O)C(=O)O` (H-YSSDTTPA-OH), the inhibition at 0.01 µM in assay [1] is 41%. In assay [2], this compound returned an inhibition at 0.1 µM of 34%.
